Results on 8 compounds are retold here after patent publication US9540343B2 (Gilead Sciences, Inc., priority 2011, dated 2017).

The subject of one data set is MT-4 cells. The data set is described as follows: in vitro. The settings on record: uninfected MT-4 cells, same protocol as Test A, 5 days, CellTiter-Glo. Summed up: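 Cytoprotection read-out: CellTiter-Glo chemiluminescence after 5 days at 37 °C of HIV-IIIb-infected MT-4 cells (m.o.i. 0.003) with compound in 10-point 3-fold dilutions, quadruplicate, 10% FBS. Cytotoxicity (CC50) measured identically without virus.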
On the technique in general: Cellular ATP, detected with luciferase, serves as a proxy for viable cell number.

In a further data set the test system is HIV-IIIb. Put plainly: Test A: Antiviral assay in MT4 cells. The format is cell-based, HIV-1. The settings on record: percent inhibition of virus-induced cell killing, from dose response curve at 2 uM drug; MT-4 cells infected with HIV-IIIb, 5 days, CellTiter-Glo.

A word on the CC50: it is the concentration at which the toxic effect on the cells reaches its halfway point. Read a low CC50 as greater toxicity to the cells. For orientation: % inhibition means the change of the read-out against control, counted positive when it falls. Higher therefore signals a response far below the control.

In the data set on MT-4 cells, `NC(=O)c1cccc(-c2cccnc2[C@H](Cc2cc(F)cc(F)c2)NC(=O)CC2C(=O)Nc3ccccc32)c1` (stereo partly drawn) [Example 192, 3-(2-((1S)-2-(3,5-difluorophenyl)-1-(2-(2-oxoindolin-3-yl)acetamido)ethyl)pyridin-3-yl)benzamide] displayed a CC50 of 47.6 µM. Further, the “% inhibition at 2 μM” value with HIV-IIIb is 2%.

Regarding `Cc1cc(-c2cccnc2[C@H](Cc2cc(F)cc(F)c2)NC(=O)Cc2c[nH]c3ccc(F)cc23)cnc1F` [Example 399], in the data set on MT-4 cells, the CC50 amounted to 12.8 µM. The “% inhibition at 2 μM” value with HIV-IIIb was 31%.

With `CC(C)CC(=O)NS(=O)(=O)c1ccc(-c2cccnc2C(Cc2cc(F)cc(F)c2)NC(=O)Cn2nc(C(F)F)c3c2C(F)(F)C2C[C@H]32)cc1` (stereo partly drawn) [Example 427, (S)—N-(1-(3-(4-(N-(3-methylbutanoyl)sulfamoyl)phenyl)-pyridin-2-yl)-2-(3,5-difluorophenyl)ethyl)-2-(3-(difluoromethyl)-5,6-dihydro-4,5-(methano)-6,6-difluoro-cyclopenta[c]pyrazol-1(4H)-yl)acetamide], in the data set with MT-4 cells, half-maximal cytotoxicity (CC50) was put at 32.8 µM. The “% inhibition at 2 μM” value in the data set with HIV-IIIb is reported as 0%.

Consider `CNS(=O)(=O)c1ccc(-c2cccnc2C(Cc2cc(F)cc(F)c2)NC(=O)Cn2nc(C(F)F)c3c2C(F)(F)C2C[C@H]32)cc1` (stereo partly drawn) [Example 429, (S)—N-(1-(3-(4-(N-methylsulfamoyl)phenyl)-pyridin-2-yl)-2-(3,5-difluorophenyl)ethyl)-2-(3-(difluoromethyl)-5,6-dihydro-4,5-(methano)-6,6-difluoro-cyclopenta[c]pyrazol-1(4H)-yl)acetamide], for which, in the data set with MT-4 cells, half-maximal cytotoxicity (CC50) was put at 41.6 µM. Also, the “% inhibition at 2 μM” value with HIV-IIIb is 57%.

On to `CCC(C(=O)N[C@@H](Cc1cc(F)cc(F)c1)c1ncccc1-c1ccc(F)c(C(N)=O)c1)n1cc(C(C)=O)c2ccccc21` (stereo partly drawn) [Example 544, 5-(2-((1S)-1-(2-(3-acetyl-1H-indol-1-yl)butanamido)-2-(3,5-difluorophenyl)ethyl)pyridin-3-yl)-2-fluorobenzamide], for which the CC50 in the data set on MT-4 cells was more than 53.2 µM. For the same compound, the “% inhibition at 2 μM” value in the data set on HIV-IIIb is 75%.

With `CCC(C(=O)N[C@@H](Cc1cc(F)cc(F)c1)c1ncccc1-c1ccc(F)c(C(N)=O)c1)n1cc(C(C)=O)c2ccccc21` (stereo partly drawn) [Example 554, 5-(2-((1S)-1-(2-(3-acetyl-1H-indol-1-yl)butanamido)-2-(3,5-difluorophenyl)ethyl)pyridin-3-yl)-2-fluorobenzamide], the CC50 with MT-4 cells was determined as 48.9 µM. Also, the “% inhibition at 2 μM” value with HIV-IIIb is listed as 63%.

In the data set with MT-4 cells, “(S)-5-(2-(1-(2-(5-(difluoromethyl)-3-phenyl-1H-pyrazol-1-yl)acetamido)-2-(3,5-difluorophenyl)ethyl)pyridin-3-yl)-2-fluorobenzamide [Example 240C]” had a CC50 of 34.9 µM. The “% inhibition at 2 μM” value in the data set on HIV-IIIb was 0%.

With “(S)—N-(1-(3-(4-(pyrrolidinylcarbonylamino)phenyl)-pyridin-2-yl)-2-(3,5-difluorophenyl)ethyl)-2-(3-(difluoromethyl)-5,6-dihydro-4,5-(methano)-6,6-difluoro-cyclopenta[c]pyrazol-1(4H)-yl)acetamide [Example 80]”, the CC50 with MT-4 cells is more than 53.2 µM. For the same compound, in the data set on HIV-IIIb, the “% inhibition at 2 μM” value is recorded as 0%.
